Consider seven compounds from patent US20110130390A1, “Use of COX-2 Inhibitors for the Treatment of Schizophrenia, Delusional Disorders, Affective Disorders, Autism or Tic Disorders” (priority 2001, published 2011).

The subject of one series is DBA/2Ola mice. Nature of the series: Forced swim test. The class given is in vivo.
Source text: Various behavioral test paradigms have been developed for evaluating the antidepressant properties of novel drugs in animals. One of the most reliable and specific paradigm is the forced swim test which has been successfully used to determine the effectiveness of antidepressants, evaluate new pharmaceutical compounds and validate animal models of depression (Porsolt et al. (1977) Arch. Int. Pharmacodym. 229:327-336; Porsolt (2000) Rev. Neurosci. 11:53-58; Rénńric et al. (2002)Behav. Brain Res. 136:521-532; Page et al. (2003) Psychopharmacology 165:194-201; Kelliher et al. (2003) Psychoneuroendocrinology 28:332-347). The test consists of placing a mouse for a period of 5 minutes into a glass cylinder containing a water depth of at least 15 cm. Under such circumstances, a mouse cannot touch the bottom of the cylinder and is thus forced to swim. Time, latency and frequency of struggling/swimming versus floating are scored as behavioral parameters. Floating (i.e. movements made only for keeping balance and breath) can be interpreted as a depression-like behavior that reflects either a failure of persistent escape-directed behavior (i.e. behavioral despair) or the development of passive behavior that disengages the animal from active forms of coping with stress stimuli. By contrast, increased struggling (i.e. vigorous attempts to escape) and swimming indicates active coping behavior and can be interpreted as an opposite to depression-like behavior.
The antidepressant activity of rofecoxib was assessed in animals according to the forced swim test. Briefly, rofecoxib was given orally by gavage to mice either in a single acute administration of 10 mg or in a repetitive chronic administration of 4 mg per day (2 mg at 9:00 in the morning, 2 mg at 18:00 in the evening) for 28 days. Control animals received a negative control consisting of water only. The forced swim test was performed 4 hour after the last administration of rofecoxib. […] All observed results were confirmed statistically using the one-way ANOVA test.
(§1) The antidepressant activity of valdecoxib was assessed in DBA/2Ola mice according to the forced swim test. Briefly, chronic administration of valdecoxib was performed by oral gavage for 28 days at a concentration of 4 mg per day (2 mg at 9:00 in the morning, 2 mg at 18:00 in the evening) and 20 mg per day (10 mg at 9:00 in the morning, 10 mg at 18:00 in the evening). Control animals received a placebo consisting of water only. The behavior of individual animals was assessed using the forced swim test 24 hours after the last administration of valdecoxib. A pre-exposure of 5 minutes to the test was done 4 hours after the last administration of valdecoxib. All observed results were confirmed statistically using the one-way ANOVA test.
as §1, with “etoricoxib” for “valdecoxib”, “DBA/201a” for “DBA/2Ola”, “etoricoxib” for “chronic administration of valdecoxib”, “chronically administered to mice” for “performed”, “etoricoxib.” for “valdecoxib.”
The antidepressant activity of the COX-2 inhibitor Cimicoxib was assessed in DBA/2Ola mice using the forced swim test. Briefly, chronic administration of cimicoxib was performed by oral gavage to mice for 28 days at a concentration of 2 or 10 mg per kg bodyweight per day (1 or 5 mg at 9:00 in the morning, 1 or 5 mg at 18:00 in the evening). Control animals received a placebo consisting of water only. […]

Series [1] is classed as in vivo, human. Conditions: FIG. 4.
Series [2] deals with depressed patients. Briefly: Hamilton-Depression scale, 17-item version (HamD), celecoxib add-on to reboxetine trial. The class given is in vivo, human. Conditions: 400 mg/day add-on to reboxetine, 6 weeks; ANOVA, Greenhouse-Geisser-corrected F=3.220; df 2.434; p=0.035; FIG. 10.
Method: The psychopathology of the patients was assessed by raters, who had undergone a training program, using the Hamilton-Depression scale, 17-item version (HamD), 24 Assessment of psychopathology and other examinations were performed at weekly intervals.
For statistics, analysis of variance was used for the HamD scale. The degrees of freedom for the within-subjects comparisons were corrected for deviance from sphericity (Greenhouse-Geisser). Post-hoc t tests were used for the weekly comparison of HamD scores. An intent to treat analysis was performed using the “last observation carried forward” (LOCF) procedure.
The test system of series [3] is depressed patients. Nature of the series: Drop-outs and side-effects in the celecoxib add-on to reboxetine trial. Conditions: celecoxib 400 mg/day add-on to reboxetine, n = 20.
Setting [4] is: chronic oral gavage 28 days, 4 mg per day and 20 mg per day, test 24 hours after the last administration.
The mark [5] stands for this setting: chronic oral gavage 28 days, 2 or 10 mg per kg bodyweight per day, test 4 hours after the last administration, FIG. 9.
[6] abbreviates: chronic oral 4 mg per day for 28 days, test 4 hour after the last administration, FIG. 6.
Setting [7] is: single acute oral administration of 10 mg, test 4 hour after administration, FIG. 6.

Method for schizophrenic patients: The psychopathology of the patients was assessed using the positive and negative syndrome scale (PANSS) (Kay et al., Schizophr. Bull. 1987, 13: 261-276). […] The statistics were performed according to the criterion of “last observation carried forward” (LOCF), i.e., the last PANSS scores of the patients who dropped out before the end of the study were carried forward to all subsequent observation days. For the comparison of the main efficacy parameter, the mean change in the PANSS between the two treatment groups, t-tests for independent samples were employed. […] For all other comparisons, two-tailed t-tests were used.

Take `Cc1onc(-c2ccccc2)c1-c1ccc(S(N)(=O)=O)cc1` [valdecoxib]: in the series on DBA/2Ola mice (setting [4]), the floating time result is recorded as “decreasing” and the “struggling or swimming times” value is recorded as “statistically increased”.

With `COc1ccc(-c2c(Cl)ncn2-c2ccc(S(N)(=O)=O)cc2)cc1F` [cimicoxib], in the series with DBA/2Ola mice (setting [5]), the floating time result is reported as “decrease” and the “struggling or swimming times” value is recorded as “statistically significant increase”.

In the case of `Cc1nc2n(c(=O)c1CCN1CCC(c3noc4cc(F)ccc34)CC1)CCCC2` [risperidone], in series [1], the “differences in the plasma levels between risperidone-celecoxib and risperidone-placebo treatment” value is listed as “without statistical significance”.

Turning to rofecoxib, in the series with DBA/2Ola mice (setting [6]), the floating time result is on record as “decreasing” and the “struggling or swimming times” value is on record as “statistically increased”. In the series with DBA/2Ola mice (setting [7]), the floating time entry is listed as “decreasing” and the “struggling or swimming times” value is on record as “statistically increased”.

For `Cc1nc2n(c(=O)c1CCN1CCC(c3noc4cc(F)ccc34)CC1)CCCC2O` (centres unmarked) [9-OH-risperidone], in series [1], the “differences in the plasma levels between risperidone-celecoxib and risperidone-placebo treatment” value is recorded as “without statistical significance”.

As to `Cc1ccc(-c2cc(C(F)(F)F)nn2-c2ccc(S(N)(=O)=O)cc2)cc1` [celecoxib], the “comparison of HamD scores during therapy with celecoxib or placebo” value in the series on depressed patients [2] is “advantage of celecoxib-group”. Besides, the “PANSS items lack of contact, emotional isolation, passive-apathic isolation, social withdrawal, depression, motor retardation” value in the series on schizophrenic patients (analysis of items discriminating good celecoxib-responders from the placebo group) is given as “therapeutic effects”. In the series on schizophrenic patients (factor analysis, not seen with placebo), the “PANSS items subsumed under the label agitation” value was “good therapeutic response”. Further, in the series on depressed patients [3], the “cardiovascular events or side-effects, clinically and by ECG surveillance” value is given as “no cardiovascular events or side-effects were observed”; the “patients excluded or refusing further treatment due to a lack of therapeutic efficacy” value is recorded as “Five”.

Regarding etoricoxib, in the series on DBA/2Ola mice (setting [4]), the floating time result is “decreasing” and the “struggling or swimming times” value is reported as “statistically increased or showed a tendency to increase”.
